Data from ChEMBL document CHEMBL3727353, “Small-molecule choline kinase inhibitors as anti-cancer therapeutics” (2011).

How the values were obtained:
K562 = experiment: Antiproliferative activity against human K562 cells after 72 hrs by alamar blue assay; format: functional, cell-based; conditions: K562, 72 h
MDA-MB-231 = experiment: Antiproliferative activity against human MDA-MB-231 cells after 72 hrs by alamar blue assay; format: functional, cell-based; conditions: MDA-MB-231, 72 h
[1] = AUC (0 to infinity) in Balbc mouse at 5 mg/kg, iv by LC-MS/MS analysis; format: ADME, organism-based; set-up: dose 5 mg/kg, time infinity, route intravenous; conditions: BALB/c, in vivo
[2] = Terminal half life in Balbc mouse at 5 mg/kg, iv by LC-MS/MS analysis; format: ADME, organism-based; conditions: BALB/c, in vivo, read-out: beta t1/2 (converted)
[3] = Clearance in Balbc mouse at 5 mg/kg, iv by LC-MS/MS analysis; format: ADME, organism-based; conditions: BALB/c, in vivo

## COc1ccc(-c2nnc(SCC(=O)Nc3ccc(F)cc3F)[nH]2)cc1
K562
  IC50: 37 µM
MDA-MB-231
  IC50: 78.7 µM

## CCOc1ccc(-c2nnc(SCC(=O)Nc3cc(C)cc(C)c3)[nH]2)cc1F
[1]
  AUC(0-inf): 1290 ng·h/mL
[2]
  half-life: 9 min
[3]
  clearance: 129 mL/min/kg
